Test results from patent publication US7880007B2, “Bicyclic substituted phenyl piperidine modulators of muscarinic receptors” (Vertex Pharmaceuticals Incorporated, priority 2004, dated 2011).

Legend:
Format in all cases: cell-based
M1 muscarinic receptor = molecular target: T1, M1 muscarinic receptor (Homo sapiens, UniProt P11229); experiment: Functional mobilization of intracellular calcium (FLIPR), M1-CHO cells; settings: for M1 Activity: M1-CHO cells, calcium mobilization (FLIPR)
T1 construct: expressed in transfected cells; host or cells: CHO (M1-CHO)
T1 sequence (P11229 1-460): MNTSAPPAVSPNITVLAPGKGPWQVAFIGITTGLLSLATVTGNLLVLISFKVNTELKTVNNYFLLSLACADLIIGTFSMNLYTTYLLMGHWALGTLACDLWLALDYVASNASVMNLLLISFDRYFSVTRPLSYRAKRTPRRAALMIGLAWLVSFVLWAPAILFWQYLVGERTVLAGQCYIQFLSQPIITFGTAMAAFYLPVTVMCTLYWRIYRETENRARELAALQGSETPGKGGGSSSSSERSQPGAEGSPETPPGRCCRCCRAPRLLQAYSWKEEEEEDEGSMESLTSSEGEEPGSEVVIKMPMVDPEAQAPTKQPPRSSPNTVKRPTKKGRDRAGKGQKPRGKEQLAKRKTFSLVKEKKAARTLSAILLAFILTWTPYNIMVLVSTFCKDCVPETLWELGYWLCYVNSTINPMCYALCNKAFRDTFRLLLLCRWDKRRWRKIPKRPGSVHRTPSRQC
Procedure, shortened: (§1)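 Calcium mobilisation read by FLIPR over 60 s (ex 488/em 540 nm) in recombinant muscarinic CHO lines loaded with calcium dye plus 1 mM probenecid. Compounds tested as agonists alone, or as inhibitors against EC80 carbachol after 15 min pre-incubation or co-addition; 0.5% DMSO; efficacy scaled to carbachol maximal response.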

M2 muscarinic receptor = molecular target: T2, M2 muscarinic receptor (Homo sapiens, UniProt P08172); experiment: Functional mobilization of intracellular calcium (FLIPR), M2-CHO cells; settings: for M2 Activity: M2-CHO cells, calcium mobilization (FLIPR)
T2 construct: expressed in transfected cells; host or cells: CHO (M2-CHO)
T2 sequence (P08172 1-466): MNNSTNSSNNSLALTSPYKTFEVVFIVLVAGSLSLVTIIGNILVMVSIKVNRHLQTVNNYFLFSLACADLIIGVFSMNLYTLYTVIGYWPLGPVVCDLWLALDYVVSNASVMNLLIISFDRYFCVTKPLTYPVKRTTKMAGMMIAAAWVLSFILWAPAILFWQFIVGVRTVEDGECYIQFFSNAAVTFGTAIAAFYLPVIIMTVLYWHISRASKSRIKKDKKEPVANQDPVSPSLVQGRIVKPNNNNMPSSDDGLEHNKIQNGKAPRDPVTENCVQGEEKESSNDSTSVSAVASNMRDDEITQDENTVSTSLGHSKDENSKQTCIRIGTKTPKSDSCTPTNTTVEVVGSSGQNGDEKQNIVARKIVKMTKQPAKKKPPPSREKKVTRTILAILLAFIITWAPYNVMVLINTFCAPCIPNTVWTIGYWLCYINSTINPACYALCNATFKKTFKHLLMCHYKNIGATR
Procedure, shortened: as §1

M4 muscarinic receptor = molecular target: T3, M4 muscarinic receptor (Homo sapiens, UniProt P08173); experiment: Functional mobilization of intracellular calcium (FLIPR), M4-CHO cells; settings: for M4 Activity: M4-CHO cells, calcium mobilization (FLIPR)
T3 construct: expressed in transfected cells; host or cells: CHO (M4-CHO)
T3 sequence (P08173 1-479): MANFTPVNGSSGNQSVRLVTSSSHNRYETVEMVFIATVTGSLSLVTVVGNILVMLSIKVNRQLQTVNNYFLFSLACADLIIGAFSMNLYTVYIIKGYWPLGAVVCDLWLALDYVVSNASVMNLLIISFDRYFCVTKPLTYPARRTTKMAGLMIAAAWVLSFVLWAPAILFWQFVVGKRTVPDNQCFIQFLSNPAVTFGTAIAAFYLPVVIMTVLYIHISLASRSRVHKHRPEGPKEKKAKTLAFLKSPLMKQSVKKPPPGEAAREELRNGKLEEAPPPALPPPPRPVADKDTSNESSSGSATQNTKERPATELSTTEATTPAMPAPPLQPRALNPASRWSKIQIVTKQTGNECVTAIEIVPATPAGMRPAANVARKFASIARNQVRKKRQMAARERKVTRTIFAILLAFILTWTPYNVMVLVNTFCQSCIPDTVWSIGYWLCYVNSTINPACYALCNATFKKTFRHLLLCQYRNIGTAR
Procedure, shortened: as §1

M3 muscarinic receptor = molecular target: T4, M3 muscarinic receptor (Homo sapiens, UniProt P20309); experiment: Functional mobilization of intracellular calcium (FLIPR), M3-CHO cells; settings: for M3 Activity: M3-CHO cells, calcium mobilization (FLIPR)
T4 construct: expressed in transfected cells; host or cells: CHO (M3-CHO)
Procedure, shortened: as §1

[1] = 100% efficacy = maximum response obtained with the Carbachol control

T4 sequence (P20309 whole entry): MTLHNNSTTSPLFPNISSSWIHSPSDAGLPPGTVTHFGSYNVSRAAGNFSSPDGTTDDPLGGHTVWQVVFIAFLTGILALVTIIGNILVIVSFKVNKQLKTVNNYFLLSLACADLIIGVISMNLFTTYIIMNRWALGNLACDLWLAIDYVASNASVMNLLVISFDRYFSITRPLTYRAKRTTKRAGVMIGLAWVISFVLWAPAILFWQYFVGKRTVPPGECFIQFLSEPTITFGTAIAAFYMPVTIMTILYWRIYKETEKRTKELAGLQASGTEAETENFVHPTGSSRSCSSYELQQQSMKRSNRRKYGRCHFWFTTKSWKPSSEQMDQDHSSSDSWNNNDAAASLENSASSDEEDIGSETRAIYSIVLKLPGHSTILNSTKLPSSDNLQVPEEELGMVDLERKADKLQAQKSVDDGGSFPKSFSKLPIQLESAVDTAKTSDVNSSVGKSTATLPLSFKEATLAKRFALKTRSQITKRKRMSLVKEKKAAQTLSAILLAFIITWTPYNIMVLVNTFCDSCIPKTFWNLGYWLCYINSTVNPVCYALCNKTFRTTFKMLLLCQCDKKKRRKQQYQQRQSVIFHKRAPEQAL

SMILES | Emax (M1 muscarinic receptor; [1]) | M1 Activity (M1 muscarinic receptor) | Emax (M2 muscarinic receptor; [1]) | M2 Activity (M2 muscarinic receptor) | Emax (M4 muscarinic receptor; [1]) | M4 Activity (M4 muscarinic receptor) | Emax (M3 muscarinic receptor; [1]) | M3 Activity (M3 muscarinic receptor) | M1 Efficacy (M1 muscarinic receptor; [1]) | M2 Efficacy (M2 muscarinic receptor; [1]) | M4 Efficacy (M4 muscarinic receptor; [1]) | M3 Efficacy (M3 muscarinic receptor; [1])
COc1ccc(-c2ccc(OC(F)(F)F)cc2)cc1C1CCN([C@H]2C[C@H]3CC[C@H]2C3)CC1 [Compound 126] | 25 to 100% | + (activity was measured to be greater than 5.0 μM) | < 25% | + (activity was measured to be greater than 5.0 μM) | 25 to 100% | + (activity was measured to be greater than 5.0 μM) | < 25% | + (activity was measured to be greater than 5.0 μM) | – | – | – | –
O=C(COc1ccccc1C1CCN([C@H]2C[C@H]3CC[C@H]2C3)CC1)c1ccc(N2CCCC2)cc1 [Compound 127] | 25 to 100% | ++ (activity was measured to be from 1.0 μM to 5.0 μM) | 25 to 100% | ++ (activity was measured to be from 1.0 μM to 5.0 μM) | 25 to 100% | +++ (activity was measured to be less than 1.0 μM) | < 25% | + (activity was measured to be greater than 5.0 μM) | – | – | – | –
COc1ccc(-c2ccc(C(=O)N3CCCCC3)cc2)cc1C1CCN([C@H]2C[C@H]3CC[C@H]2C3)CC1 [Compound 128] | < 25% | + (activity was measured to be greater than 5.0 μM) | < 25% | + (activity was measured to be greater than 5.0 μM) | < 25% | ++ (activity was measured to be from 1.0 μM to 5.0 μM) | < 25% | + (activity was measured to be greater than 5.0 μM) | – | – | – | –
COc1ccc(-c2ccc(S(=O)(=O)N3CCCC3)cc2)cc1C1CCN(C2CC3CCC(C3)C2)CC1 (stereo not drawn) [Compound 129] | < 25% | + (activity was measured to be greater than 5.0 μM) | < 25% | + (activity was measured to be greater than 5.0 μM) | 25 to 100% | + (activity was measured to be greater than 5.0 μM) | < 25% | + (activity was measured to be greater than 5.0 μM) | – | – | – | –
COc1ccc(Cl)cc1C1CCN(C2CCC(=NOC(C)(C)C)CC2)CC1 (stereo not drawn) [Compound 130] | – | ++ (activity was measured to be from 1.0 μM to 5.0 μM) | – | + (activity was measured to be greater than 5.0 μM) | – | +++ (activity was measured to be less than 1.0 μM) | – | + (activity was measured to be greater than 5.0 μM) | ++ (efficacy was calculated to be from 100% to 25%) | + (efficacy was calculated to be less than 25%) | ++ (efficacy was calculated to be from 100% to 25%) | + (efficacy was calculated to be less than 25%)
COc1ccccc1C1CC2CCC(C1)N2C1CCCCC1 (stereo not drawn) [Compound 132] | < 25% | ++ (activity was measured to be from 1.0 μM to 5.0 μM) | < 25% | + (activity was measured to be greater than 5.0 μM) | < 25% | ++ (activity was measured to be from 1.0 μM to 5.0 μM) | < 25% | + (activity was measured to be greater than 5.0 μM) | – | – | – | –
Clc1cccc(C2CCN(C3CC4CCC(C4)C3)CC2)c1 (stereo not drawn) [Compound 133] | 25 to 100% | + (activity was measured to be greater than 5.0 μM) | < 25% | + (activity was measured to be greater than 5.0 μM) | 25 to 100% | +++ (activity was measured to be less than 1.0 μM) | < 25% | + (activity was measured to be greater than 5.0 μM) | – | – | – | –
COc1ccc(F)cc1C1(F)CCN(C[C@H]2C[C@H]3C=C[C@H]2C3)CC1 [Compound 134] | 25 to 100% | ++ (activity was measured to be from 1.0 μM to 5.0 μM) | 25 to 100% | ++ (activity was measured to be from 1.0 μM to 5.0 μM) | 25 to 100% | +++ (activity was measured to be less than 1.0 μM) | < 25% | + (activity was measured to be greater than 5.0 μM) | – | – | – | –
Cc1ccc(C)c(C2(O)CCN(C3CC4CCC3C4)CC2)c1 (stereo not drawn) [Compound 135] | 25 to 100% | + (activity was measured to be greater than 5.0 μM) | < 25% | + (activity was measured to be greater than 5.0 μM) | < 25% | + (activity was measured to be greater than 5.0 μM) | – | + (activity was measured to be greater than 5.0 μM) | – | – | – | –
COc1ccccc1C1CCN(C2CC(C)(C)CC(C)(C)C2)CC1 [Compound 138] | < 25% | + (activity was measured to be greater than 5.0 μM) | < 25% | + (activity was measured to be greater than 5.0 μM) | < 25% | + (activity was measured to be greater than 5.0 μM) | < 25% | + (activity was measured to be greater than 5.0 μM) | – | – | – | –
COc1ccc(-c2ccccc2C2CCN([C@H]3C[C@H]4CC[C@H]3C4)CC2)c(OC)c1 [Compound 139] | 25 to 100% | + (activity was measured to be greater than 5.0 μM) | < 25% | + (activity was measured to be greater than 5.0 μM) | 25 to 100% | ++ (activity was measured to be from 1.0 μM to 5.0 μM) | < 25% | + (activity was measured to be greater than 5.0 μM) | – | – | – | –
COc1ccc(Cl)cc1C1(OC)CCN(C[C@H]2C[C@H]3C=C[C@@H]2C3)CC1 [Compound 140, 1-(((1S,2S,4S)-bicyclo[2.2.1]hept-5-en-2-yl)methyl)-4-(5-chloro-2-methoxyphenyl)-4-methoxypiperidine] | 25 to 100% | ++ (activity was measured to be from 1.0 μM to 5.0 μM) | 25 to 100% | ++ (activity was measured to be from 1.0 μM to 5.0 μM) | 25 to 100% | +++ (activity was measured to be less than 1.0 μM) | < 25% | + (activity was measured to be greater than 5.0 μM) | – | – | – | –
Clc1ccc(-c2ccccc2C2CCN([C@H]3C[C@H]4CC[C@H]3C4)CC2)cc1 [Compound 142] | 25 to 100% | + (activity was measured to be greater than 5.0 μM) | 25 to 100% | + (activity was measured to be greater than 5.0 μM) | 25 to 100% | ++ (activity was measured to be from 1.0 μM to 5.0 μM) | < 25% | + (activity was measured to be greater than 5.0 μM) | – | – | – | –
COc1ccc(-c2cccc(Cl)c2)cc1C1CCN([C@@H]2C[C@H]3CC[C@H]2C3)CC1 [Compound 143] | < 25% | + (activity was measured to be greater than 5.0 μM) | < 25% | + (activity was measured to be greater than 5.0 μM) | 25 to 100% | + (activity was measured to be greater than 5.0 μM) | < 25% | + (activity was measured to be greater than 5.0 μM) | – | – | – | –
